This is an account of results in patent US20040097408A1, “Compounds regulating cell proliferation and differentiation” (priority 2001, published 2004).

The subject of one data set is ZR75. Put plainly: cell count proliferation assay. It is filed as cell-based. The arrangement: key: +: A positive scoring in these Tables represent cells in which a 2-5 and a 10-40 fold reduction in the total number of cells relative to the control untreated cells was observed after 3 and 7 days of culture with F16, respectively. The following applies: ZR75, human breast; F16 3 μM, cells counted after 3 and 7 days. From the text:
The following panel of mouse tumor cell lines derived from Neu, Ras and Myc transgenic mice and panel of human cancer cell lines were used: a) Neu-initiated mouse tumor cell lines NF980, NF324-2A, NF324-1B, SMF, NAF, Neu4145, n-Neu, Ras-initiated mouse tumor cell lines SH1,1, AC236, AC711, AC816, ACp53^−#1, ACp53^−4782, AC222, AC99, AC260, ACp53^−#19, ACp53^−#16, AC/Balb6.6, AC/Balb14, AC/Balb12 and Myc-initiated mouse tumor cell lines 16MB9a, 13MA1a; and b) human breast tumor cell lines MDA-MB231, MDA-MB435, MDA-MB436, MDA-MB453, MDA-MB-468, SKBR-3, MCF-7, T47D, ZR75; human prostate cancer cell lines LNCaP, PC-3, DU145 and the human ovarian cancer cell line SKOV-3.
For each cell line, 10^5 cells were seeded in 4×6 well plates. Next day, F16 was added at 3 μM to the medium of 2 of the plates, while the other two were left untreated (control). Cells were counted 3 days and 7 days after initiation of treatment.
A positive scoring in these Tables represent cells in which a 2-5 and a 10-40 fold reduction in the total number of cells relative to the control untreated cells was observed after 3 and 7 days of culture with F16, respectively.

The next data set relates to EpH-A6 cells. Description: cell cycle phases by BrdU incorporation / FACS. In kind it is cell-based, mouse. The settings on record: 3 μM F16, 30-36 hr, FIG. 5. How it is done: The percentage of cells in the different phases of the cell cycle was assessed by measuring BrdU incorporation into the DNA of the cells. BrdU incorporation into DNA of untreated or F16 treated (3 μM/30-36 hr) EpH-EV and EpH-A6 cells was assessed by FACS as follows. After F16 or mock treatment, the cells were pulsed with BrdU (20 μM) for 1 hour and then fixed in 70% ethanol at −20° C. overnight. Next morning cells were washed twice with 1×PBS and the DNA was denatured by incubation of the cells in 2N HCl/0.5% Triton X-100. The cells were then washed twice in 0.1M Na2B2O7, and once in PBS. The cells were resuspended in PBS, incubated with 20 μL of anti-BrdU/FITC(Becton Dickinson) for 1 hour and subsequently washed with 1×PBS and resuspended in PBS. RNA was digested with RNaseA (1 μL of 10 mg/mL stock) at 37° C. for 30 minutes. Finally, the cells were diluted with 1 mL of 5 μg/mL propidium iodide/PBS and incubated on ice for 15 minutes. The labeled cells were analyzed using the FACSCalibur (Becton Dickinson).
A general note: Uptake of a labelled nucleoside into DNA is a usual measure of proliferation.

The nature of data set [1]: level of F16 in serum of mice by fluorescence. In kind it is in vivo, mouse. The following applies: 12.5 or 25 mg/kg intraperitoneally. Here is the method: To determine the levels of F16 present in the blood of mice after injection of F16, two mice were injected intraperitoneally with 25 mg/kg F16 and two mice were injected intraperitoneally with 12.5 mg/kg of F16. […] 40-50 μL of blood was obtained from the tail vein of the mice and placed into tubes incubated in ice and containing Heparin to a final concentration of 20U/mL of blood. Samples were centrifuged at 6,000 rpm for 3 minutes in the cold room. Serum was transfered to a clean tube and stored at −70° C. until further processing. 2 μL of serum samples were spotted onto Whatman paper, alongside with dilutions of F16 as a standard. Since F16 is a fluorescent compound (see below), the presence of F16 was deteremined by measuring its fluorescence emission using the Storm 860 (Molecular Dynamics). The concentration of F16 in serum samples was estimated by visual comparison to the intensity of the standard.

Another data set has as its system 16MB9a. Description: uptake/retention of F16 by fluorescence microscopy. In kind it is cell-based, mouse. The settings on record: 3 μM F16, 24 hours. Here is the method: (§1) The following cell lines were used in this Example: EpH4-A6 (Neu^T); EpH4-EV; Neu-initiated mouse tumor cell lines NF980, NAF and nNeu; Ras-initated tumor cell lines SH1.1 and AC816; a Myc-initiated tumor cell line 16MB9a; and normal mammary epethileal cells HC11, NuMg and EpH4. The cells were grown on 60 mm plates and incubated with medium alone or medium containing 3 μM F16 for 24 hours at 37° C. The fluorescence signal of F16 was visualized under inverted microscope Axiovert (Zeiss) using a standard fluorescein filter set. Cells were photographed using a digital camera D1 (Nikon).

Another data set has as its system EpH4-A6 cells. Put plainly: uptake/retention of F16 by fluorescence microscopy. In kind it is cell-based, mouse. The following applies: 3 μM F16, 24 hours. Here is the method:
as §1

The next data set relates to EpH4-EV cells. Put plainly: uptake/retention of F16 by fluorescence microscopy. In kind it is cell-based, mouse. The settings on record: 3 μM F16, 24 hours. Here is the method:
as §1

For data set [2], the system named is ras- and neu-initiated tumor cell lines. Description: uptake/retention of F16 by fluorescence microscopy. The following applies: 3 μM F16, 24 hours. In kind it is cell-based, mouse. How it is done: as §1
Data set [3] relates to isolated mouse liver mitochondria. Description: mitochondrial membrane potential by F16 fluorescence. In kind it is biochemical. The following applies: 1 μM and 50 μM F16. Here is the method: Mitochondria were isolated from liver of Balb/c7 mice by standard differential centrifugation, and resuspended in isolation buffer (0.2 M sucrose, 10 mM Tris-MOPS pH 7.4, 0.1 mM EGTA-Tris, 0.1% delipidated BSA) (Costantini et al. (1995) Toxicology (99) 77-88). Protein concentration was determined by Bradford assay. For swelling determination, changes in side scatter at 545±2.5 nm of a 0.5 mg/ml suspension of mitochondria in experimental buffer (125 mM KCl, 10 mM Tris-MOPS pH 7.4, 1 mM Pi, 5 mM glutamate, 2.5 mM malate, 10 μM EGTA-Tris, pH 7.4) were monitored by using LS-50B spectrofluorimeter. To monitor changes in mitochondrial membrane potential, the intrinsic potentiometric properties of F16 were used. Mitochondria (0.5 mg/ml) were incubated in experimental buffer with the indicated concentrations of F16 and changes in F16 fluorescence intensity were measured, using a LS-50B spectrofluorimeter at 25° C., with excitation and emission wavelengths set at 415±2.5 nm and 520±5 nm, respectively. All reactions were performed at 25° C. and the instrument was equipped with magnetic stirring.
The fluorescent properties of F16 were used for this purpose. It was determined whether the fluorescence of a 1 μM solution of F16 changed in response to mitochondrial energization and depolarization. […] Preincubation of mitochondria with the PTP inhibitor CsA only partially blunted this effect.

For `C[n+]1ccc(/C=C/c2c[nH]c3ccccc23)cc1.[I-]` [F16], in the data set with ZR75, the F16 response result was “+”. Further, the “percentage of cells in G1 phase” value in the data set with EpH-A6 cells is on record as “increase”. Besides, in the data set on EpH-A6 cells, the “percentage of cells in the S phase” value is “dramatic decrease”. For the same molecule, the “F16 in blood 20 hours after the injection” value in data set [1] was “not detected”. Besides, the “time of the maximum level of F16 in the blood” value in data set [1] (FIG. 7) is 1 to 3 h. Further, the “level of F16 in the blood at 7 hours after the injection” value in data set [1] (compared to standard) was “nanomolar range”. Further, the “maximum level of F16 in the blood” value in data set [1] (compared to standard) is reported as “micromolar range”. In addition, the “uptake/retention of F16 (fluorescence)” value in the data set with 16MB9a is “does not show fluoresence”; in the data set on EpH4-A6 cells it was “very intense fluorescent green punctuated staining”; in the data set on EpH4-EV cells, “do not show any uptake/retention”; in data set [2], “very intense fluorescent green punctuated staining”. Moreover, in data set [3], the mitochondrial depolarization entry is recorded as “directly causes mitochondrial depolarization”.
